# Measurements taken from US20190388320A1, “METHOD OF STRENGTHENING HAIR” (Conopco, Inc. d/b/a UNILEVER, priority 2017, published 2019).
# Experiment: Denaturation temperature Td of treated hair fibres by DSC
# Conditions: soaked for 30 minutes in 2% aqueous solution; for Average Td (n = 3): denaturation temperature by DSC, hair switches washed, left to dry; for Change in Td of the treated fibres: in words, relative to Control (water)
# Description: Virgin dark brown European hair switches of length 25 cm and weight 2 gms, were treated as follows: • Control: After initial washing, soaked for 30 minutes in water • Example 1: After initial washing, soaked for 30 minutes in a 2% aqueous solution of N-α-acetyl-L-lysine • Example A: After initial washing, soaked for 30 minutes in a 2% aqueous solution of L-lysine • Example B: After initial washing, soaked for 30 minutes in a 2% aqueous solution of N-α-acetyl-L-arginine
# At the end of the soaking period the switches were left to dry and clippings from a few fibres were used to measure denaturation temperature Td using DSC.
Structure (SMILES),Average Td (n = 3),Change in Td of the treated fibres
"CC(=O)N[C@@H](CCCCN)C(=O)O [Example 1, N-α-acetyl-L-lysine]",153.4,substantial and significant increase in Td
"NCCCC[C@H](N)C(=O)O [Example A, L-lysine]",148.1,decrease Td
"CC(=O)N[C@@H](CCCNC(=N)N)C(=O)O [Example B, N-α-acetyl-L-arginine]",148.2,decrease Td
